Assay results as given in ChEMBL document CHEMBL2177007, “Indole-derived psammaplin A analogues as epigenetic modulators with multiple inhibitory activities” (J Med Chem, 2012).
Calls of active or inactive are those of the source. The calls are words filed in the database; no cut-off is given here.

What was measured:
[1] = Cell cycle arrest in apoptosis in AML patient blasts at 5 uM after 26 hrs; assay type: functional; conditions: Homo sapiens
[2] = biological target: T1, Protein deacetylase HDAC6 (Homo sapiens) (UniProt Q9UBN7); experiment: Inhibition of HDAC6 in human U937 cells assessed as induction of alpha-tubulin acetylation at 5 uM after 30 hrs by cytofluorimetric analysis; assay type: cell-based; conditions: U-937
T1 sequence (whole entry): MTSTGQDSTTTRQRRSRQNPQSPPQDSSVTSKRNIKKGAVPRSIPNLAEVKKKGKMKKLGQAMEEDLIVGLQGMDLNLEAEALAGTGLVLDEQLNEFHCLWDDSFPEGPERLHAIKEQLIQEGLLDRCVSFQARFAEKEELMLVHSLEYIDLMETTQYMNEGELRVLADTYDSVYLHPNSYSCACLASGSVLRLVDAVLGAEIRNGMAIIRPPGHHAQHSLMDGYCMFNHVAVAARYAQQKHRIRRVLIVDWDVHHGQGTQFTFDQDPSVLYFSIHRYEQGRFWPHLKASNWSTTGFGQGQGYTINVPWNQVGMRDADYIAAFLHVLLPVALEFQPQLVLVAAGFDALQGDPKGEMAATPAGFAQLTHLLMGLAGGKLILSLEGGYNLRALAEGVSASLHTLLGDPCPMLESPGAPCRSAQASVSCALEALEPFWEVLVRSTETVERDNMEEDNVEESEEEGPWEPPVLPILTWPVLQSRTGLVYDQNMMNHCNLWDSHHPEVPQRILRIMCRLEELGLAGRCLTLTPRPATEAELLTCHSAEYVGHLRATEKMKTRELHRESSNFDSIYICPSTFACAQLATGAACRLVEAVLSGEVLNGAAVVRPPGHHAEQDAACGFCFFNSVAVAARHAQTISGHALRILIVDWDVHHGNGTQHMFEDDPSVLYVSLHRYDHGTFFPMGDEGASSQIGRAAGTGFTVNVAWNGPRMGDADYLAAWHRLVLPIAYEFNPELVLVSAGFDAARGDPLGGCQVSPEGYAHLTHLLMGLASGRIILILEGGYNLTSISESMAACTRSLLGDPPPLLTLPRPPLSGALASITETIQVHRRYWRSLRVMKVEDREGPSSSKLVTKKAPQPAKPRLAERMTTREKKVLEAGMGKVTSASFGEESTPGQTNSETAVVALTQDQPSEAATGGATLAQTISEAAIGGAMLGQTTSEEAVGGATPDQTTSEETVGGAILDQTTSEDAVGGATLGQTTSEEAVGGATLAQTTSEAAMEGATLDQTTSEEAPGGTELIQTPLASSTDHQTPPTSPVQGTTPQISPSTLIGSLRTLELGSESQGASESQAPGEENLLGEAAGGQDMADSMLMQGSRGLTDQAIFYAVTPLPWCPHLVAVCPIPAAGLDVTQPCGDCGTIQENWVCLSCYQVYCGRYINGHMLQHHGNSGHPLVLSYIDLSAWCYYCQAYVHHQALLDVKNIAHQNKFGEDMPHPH

U-937 [3] = experiment: Induction of apoptosis in human U937 cells at 5 uM after 30 hrs; assay type: functional, cell-based
AML = experiment: Induction of apoptosis in AML patient blasts at 5 uM after 26 hrs; assay type: functional; conditions: Homo sapiens
[4] = biological target: Histone deacetylase 1 (Homo sapiens) (UniProt Q13547); experiment: Inhibition of HDAC1 in human U937 cells at 5 uM […]; assay type: cell-based; conditions: U-937
Sequence of Histone deacetylase 1 (Homo sapiens) (Q13547 whole entry): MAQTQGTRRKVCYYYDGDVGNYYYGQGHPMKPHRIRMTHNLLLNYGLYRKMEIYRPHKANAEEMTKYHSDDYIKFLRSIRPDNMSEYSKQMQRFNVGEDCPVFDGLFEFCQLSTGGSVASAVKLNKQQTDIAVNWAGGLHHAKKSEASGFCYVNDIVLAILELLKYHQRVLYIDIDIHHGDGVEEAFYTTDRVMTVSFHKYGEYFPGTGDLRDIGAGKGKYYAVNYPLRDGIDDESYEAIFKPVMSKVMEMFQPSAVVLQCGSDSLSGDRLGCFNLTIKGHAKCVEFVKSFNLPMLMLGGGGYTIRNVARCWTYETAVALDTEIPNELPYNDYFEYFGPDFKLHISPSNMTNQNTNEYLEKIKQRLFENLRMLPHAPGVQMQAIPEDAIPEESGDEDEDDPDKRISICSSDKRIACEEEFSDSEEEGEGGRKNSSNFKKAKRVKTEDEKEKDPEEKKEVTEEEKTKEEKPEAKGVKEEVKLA

[5] = biological target: Histone deacetylase (Homo sapiens) (UniProt Q13547+O15379+Q9UBN7+Q92769+Q9UQL6+Q8WUI4+Q9BY41+Q96DB2+P56524+Q9UKV0+Q969S8); experiment: Inhibition of HDAC in human U937 cells assessed as induction of histone H3 acetylation at 5 uM after 30 hrs by cytofluorimetric analysis; assay type: cell-based; conditions: U-937
[6] = biological target: Protein kinase C alpha type (Homo sapiens) (UniProt P17252); experiment: Inhibition of PKCalpha in human U937 cells assessed as p21WAF1/CIP1 expression at 5 uM after 30 hrs by cytofluorimetric analysis; assay type: cell-based; conditions: U-937
U-937 [7] = experiment: Induction of cell differentiation in human U937 cells assessed as CD11c expression at 5 uM after 30 hrs by cytofluorimetric analysis; assay type: functional, cell-based
U-937 [8] = experiment: Cell cycle arrest in human U937 cells at 5 uM after 24 hrs by cytofluorimetric analysis; assay type: functional, cell-based
[9] = biological target: Histone deacetylase 4 (Homo sapiens) (UniProt P56524); experiment: Inhibition of HDAC4 in human U937 cells at 5 uM […]; assay type: cell-based; conditions: U-937
Sequence of Histone deacetylase 4 (Homo sapiens) (P56524 whole entry): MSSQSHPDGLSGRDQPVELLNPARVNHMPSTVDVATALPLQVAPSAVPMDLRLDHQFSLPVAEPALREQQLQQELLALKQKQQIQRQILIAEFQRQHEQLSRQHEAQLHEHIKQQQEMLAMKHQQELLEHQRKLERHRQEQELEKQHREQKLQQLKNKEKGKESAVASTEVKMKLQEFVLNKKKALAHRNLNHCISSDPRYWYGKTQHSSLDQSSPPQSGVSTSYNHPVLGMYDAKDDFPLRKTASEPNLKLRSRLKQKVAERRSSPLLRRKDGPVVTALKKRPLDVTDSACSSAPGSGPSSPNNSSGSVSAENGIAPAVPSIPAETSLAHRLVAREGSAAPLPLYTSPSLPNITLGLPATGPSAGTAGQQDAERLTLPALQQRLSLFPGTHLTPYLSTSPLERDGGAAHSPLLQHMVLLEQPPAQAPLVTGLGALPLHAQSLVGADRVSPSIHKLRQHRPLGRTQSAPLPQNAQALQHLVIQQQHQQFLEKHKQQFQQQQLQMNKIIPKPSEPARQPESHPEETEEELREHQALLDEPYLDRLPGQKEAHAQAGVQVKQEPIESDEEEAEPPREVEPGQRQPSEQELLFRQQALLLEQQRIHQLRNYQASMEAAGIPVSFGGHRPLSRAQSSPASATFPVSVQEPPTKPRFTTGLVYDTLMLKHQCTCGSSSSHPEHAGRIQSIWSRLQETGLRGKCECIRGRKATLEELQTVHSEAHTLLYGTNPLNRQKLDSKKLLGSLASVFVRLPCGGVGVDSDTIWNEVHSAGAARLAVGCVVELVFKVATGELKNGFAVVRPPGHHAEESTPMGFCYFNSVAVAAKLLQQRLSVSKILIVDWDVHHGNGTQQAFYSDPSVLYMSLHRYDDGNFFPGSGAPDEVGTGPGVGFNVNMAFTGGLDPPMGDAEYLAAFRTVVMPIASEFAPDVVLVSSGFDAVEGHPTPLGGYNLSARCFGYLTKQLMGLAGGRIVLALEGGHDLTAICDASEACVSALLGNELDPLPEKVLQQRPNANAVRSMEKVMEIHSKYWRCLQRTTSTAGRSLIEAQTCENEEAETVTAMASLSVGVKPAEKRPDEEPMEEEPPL

[10] = biological target: T2, NAD-dependent protein deacetylase sirtuin-1 (Homo sapiens) (UniProt Q96EB6); experiment: Inhibition of human recombinant SIRT1 using KI-177 as substrate at 5 uM after 30 mins by fluorescence assay
T2 sequence (whole entry): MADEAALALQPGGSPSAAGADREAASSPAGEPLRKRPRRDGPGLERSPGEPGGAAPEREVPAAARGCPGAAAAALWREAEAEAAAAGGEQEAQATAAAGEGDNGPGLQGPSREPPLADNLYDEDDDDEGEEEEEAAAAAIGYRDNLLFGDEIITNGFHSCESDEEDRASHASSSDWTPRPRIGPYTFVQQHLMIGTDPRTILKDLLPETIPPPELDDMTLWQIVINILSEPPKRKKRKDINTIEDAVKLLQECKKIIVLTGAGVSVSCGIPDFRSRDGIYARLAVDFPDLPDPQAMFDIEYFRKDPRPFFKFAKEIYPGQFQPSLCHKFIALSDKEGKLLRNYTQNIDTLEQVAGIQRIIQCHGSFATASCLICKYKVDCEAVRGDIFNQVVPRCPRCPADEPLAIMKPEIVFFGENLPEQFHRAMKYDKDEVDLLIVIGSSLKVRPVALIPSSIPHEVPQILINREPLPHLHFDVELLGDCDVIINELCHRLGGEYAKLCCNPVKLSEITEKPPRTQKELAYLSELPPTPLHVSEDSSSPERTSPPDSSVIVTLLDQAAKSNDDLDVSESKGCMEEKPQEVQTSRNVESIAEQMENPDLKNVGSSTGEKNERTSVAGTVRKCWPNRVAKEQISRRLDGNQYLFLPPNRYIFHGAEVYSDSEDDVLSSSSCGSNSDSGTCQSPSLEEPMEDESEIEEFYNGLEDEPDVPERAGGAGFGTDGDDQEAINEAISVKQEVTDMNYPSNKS

[11] = biological target: DNA (cytosine-5)-methyltransferase 1 (Homo sapiens) (UniProt P26358); experiment: Inhibition of recombinant DNMT1 using S-adenosyl-L-[methyl-3H]methionine as substrate at 5 uM after 2 hrs by radioactive assay
Sequence of DNA (cytosine-5)-methyltransferase 1 (Homo sapiens) (P26358 whole entry): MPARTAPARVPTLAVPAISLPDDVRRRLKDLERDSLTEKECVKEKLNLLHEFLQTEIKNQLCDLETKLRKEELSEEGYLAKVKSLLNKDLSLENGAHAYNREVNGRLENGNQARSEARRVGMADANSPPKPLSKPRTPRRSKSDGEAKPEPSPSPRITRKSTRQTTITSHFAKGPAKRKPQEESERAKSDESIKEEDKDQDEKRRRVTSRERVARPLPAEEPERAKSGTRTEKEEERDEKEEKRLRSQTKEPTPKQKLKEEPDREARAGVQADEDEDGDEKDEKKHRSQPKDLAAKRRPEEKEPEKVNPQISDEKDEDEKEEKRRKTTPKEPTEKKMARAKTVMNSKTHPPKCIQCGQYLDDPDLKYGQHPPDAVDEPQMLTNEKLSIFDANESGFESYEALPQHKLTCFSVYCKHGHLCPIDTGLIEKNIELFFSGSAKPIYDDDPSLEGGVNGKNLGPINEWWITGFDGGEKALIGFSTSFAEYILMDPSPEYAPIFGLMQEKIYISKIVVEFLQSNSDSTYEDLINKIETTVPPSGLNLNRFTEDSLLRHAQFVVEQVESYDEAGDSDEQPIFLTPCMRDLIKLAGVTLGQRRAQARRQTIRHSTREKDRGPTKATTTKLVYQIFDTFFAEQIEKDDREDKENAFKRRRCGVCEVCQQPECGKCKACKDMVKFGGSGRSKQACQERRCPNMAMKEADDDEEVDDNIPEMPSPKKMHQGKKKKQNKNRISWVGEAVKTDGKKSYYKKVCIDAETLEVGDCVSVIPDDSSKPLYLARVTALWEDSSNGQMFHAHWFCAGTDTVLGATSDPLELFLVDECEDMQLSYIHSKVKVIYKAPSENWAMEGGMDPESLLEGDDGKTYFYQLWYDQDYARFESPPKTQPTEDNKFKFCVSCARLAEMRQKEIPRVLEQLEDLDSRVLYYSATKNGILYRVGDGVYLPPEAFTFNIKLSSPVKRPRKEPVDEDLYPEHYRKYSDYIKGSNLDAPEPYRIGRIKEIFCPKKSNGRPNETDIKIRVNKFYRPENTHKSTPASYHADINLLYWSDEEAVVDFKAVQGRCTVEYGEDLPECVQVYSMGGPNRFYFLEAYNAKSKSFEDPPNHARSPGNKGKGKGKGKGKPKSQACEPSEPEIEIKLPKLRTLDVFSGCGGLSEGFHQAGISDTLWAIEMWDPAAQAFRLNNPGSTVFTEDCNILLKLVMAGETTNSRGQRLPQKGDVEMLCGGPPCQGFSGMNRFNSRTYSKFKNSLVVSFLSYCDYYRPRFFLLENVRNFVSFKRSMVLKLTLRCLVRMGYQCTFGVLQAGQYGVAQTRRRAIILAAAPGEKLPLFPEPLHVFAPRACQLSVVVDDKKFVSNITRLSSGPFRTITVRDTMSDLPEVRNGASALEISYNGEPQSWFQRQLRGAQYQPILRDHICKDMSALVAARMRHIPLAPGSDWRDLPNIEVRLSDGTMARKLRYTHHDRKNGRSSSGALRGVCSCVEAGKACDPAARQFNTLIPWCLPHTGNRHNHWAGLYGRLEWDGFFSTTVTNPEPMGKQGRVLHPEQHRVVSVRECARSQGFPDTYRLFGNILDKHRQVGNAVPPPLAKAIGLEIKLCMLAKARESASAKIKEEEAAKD

[12] = biological target: DNA (cytosine-5)-methyltransferase 1 (Homo sapiens) (UniProt P26358); experiment: Inhibition of DNMT1 human U937 cells assessed as reactivation of p16 expression at 5 uM after 24 hrs by Western blot analysis; assay type: cell-based; conditions: U-937
[13] = biological target: T2, NAD-dependent protein deacetylase sirtuin-1 (Homo sapiens); experiment: Inhibition of SIRT1 in human U937 cells assessed as H3 acetylation on lysine K9 at 5 uM after 24 hrs by Western blot analysis; assay type: cell-based; conditions: U-937
[14] = biological target: T2, NAD-dependent protein deacetylase sirtuin-1 (Homo sapiens); experiment: Inhibition of SIRT1 in human U937 cells assessed as H3 acetylation on lysine K56 at 5 uM after 24 hrs by Western blot analysis; assay type: cell-based; conditions: U-937
[15] = biological target: T2, NAD-dependent protein deacetylase sirtuin-1 (Homo sapiens); experiment: Inhibition of SIRT1 in human MCF7 cells assessed as p53 acetylation on lysine 382 after 24 hrs by Western blot analysis; assay type: cell-based
U-937 [16] = experiment: Effect on DNMT1 level in human U937 cells at 0.5 to 5 uM after 24 hrs by Western blot analysis; assay type: functional, cell-based
[17] = biological target: DNA (cytosine-5)-methyltransferase 1 (Homo sapiens) (UniProt P26358); experiment: Inhibition of DNMT1 human u937 cells assessed as reactivation of p16 expression at 0.5 to 5 uM after 24 hrs by Western blot analysis
[18] = biological target: T2, NAD-dependent protein deacetylase sirtuin-1 (Homo sapiens); experiment: Inhibition of SIRT1 in human MCF7 cells assessed as p53 acetylation on lysine 382 at 5 uM after 24 hrs by Western blot analysis; assay type: cell-based
U-937 [19] = experiment: Cell cycle arrest in human U937 cells assessed as accumulation at G2M phase at 5 uM after 24 hrs by cytofluorimetric analysis; assay type: functional, cell-based
U-937 [20] = experiment: Cell cycle arrest in human U937 cells assessed as accumulation at G1 phase at 5 uM after 24 hrs by cytofluorimetric analysis; assay type: functional, cell-based

inhibition [2]	inhibition [4]	inhibition [5]	inhibition [6]	inhibition [9] [%]	inhibition [10]	inhibition [11]	inhibition [12]	inhibition [13]	inhibition [14]	inhibition [17]	inhibition [18]	Compound	Activity [1]	Activity (U-937 [3])	Activity (AML)	Activity (U-937 [7])	Activity (U-937 [8])	Activity (U-937 [16])	further results
Active	60%	Active	Active	40	Active	Active	Active	–	–	Active	Active	O=C(NCCSSCCNC(=O)/C(Cc1c[nH]c2ccc(Br)cc12)=N/O)/C(Cc1c[nH]c2ccc(Br)cc12)=N/O	Active	Active	Active	–	–	inactive	–
Active	40%	Active	Active	20	inactive	inactive	–	Active	Active	Active	Active	CSCCNC(=O)/C(Cc1c[nH]c2ccc(Br)cc12)=N/O	–	inactive	Active	Active	–	inactive	Activity (U-937 [19]): inactive; Activity (U-937 [20]): Active
Active	60%	Active	Active	40	–	–	–	–	–	–	–	O=C(NCCSSCCNC(=O)/C(Cc1c[nH]c2cc(Br)ccc12)=N/O)/C(Cc1c[nH]c2cc(Br)ccc12)=N/O	Active	Active	Active	Active	Active	–	–

Second part, the compound before the results:

Compound	inhibition [2]	inhibition [4]	inhibition [5]	inhibition [6]	inhibition [9] [%]	inhibition [10]	inhibition [11]	inhibition [12]	inhibition [13]	inhibition [14]	inhibition [17]	inhibition [18]	Activity [1]	Activity (U-937 [3])	Activity (AML)	Activity (U-937 [7])	Activity (U-937 [8])	Activity (U-937 [16])	further results
O=C(NCCSSCCNC(=O)/C(Cc1ccc(O)c(Br)c1)=N/O)/C(Cc1ccc(O)c(Br)c1)=N/O	Active	–	–	–	–	–	–	–	–	–	–	–	Active	Active	Active	–	–	–	–
O=C(NCCSSCCNC(=O)/C(Cc1c[nH]c2c(Br)cccc12)=N/O)/C(Cc1c[nH]c2c(Br)cccc12)=N/O	Active	60%	Active	Active	40	–	–	–	–	–	–	–	Active	Active	Active	Active	Active	–	–
Cn1cc(C/C(=N\O)C(=O)NCCSSCCNC(=O)/C(Cc2cn(C)c3ccc(Br)cc23)=N/O)c2cc(Br)ccc21	Active	Active	Active	Active	–	inactive	inactive	Active	Active	Active	Active	–	–	Active	–	Active	–	inactive	inhibition [15]: Dose-dependent effect
